Test results taken from patent US8513271B2, “Pyrimidine compounds as delta opioid receptor modulators” (Janssen Pharmaceutica, NV, priority 2009, dated 2013).
pEC50, pKi: −log10 of the molar value. Where “and” joins values, the source holds several entries; their conditions need not be identical. Identical values can stand only once. Like-named read-outs stand apart in the source and are kept apart here.

How the values were obtained:
[1] = system: acetic acid-induced abdominal stretches; assay: Mouse graded abdominal irritant test (GrAIT); assay type: in vivo; settings: 10% Solutol, 30 min pretreatment
[2] = target: T1, mu opioid receptor (Rattus norvegicus, UniProt P33535); assay: Rat brain mu opioid receptor binding assay; settings: rat forebrain, [3H]DAMGO ligand
T1 construct: the forebrains were homogenized in Tris buffer in a Teflon®-glass homogenizer; from tissue; host or cells: forebrain of male Wistar rats, particulate (membrane) preparation
T1 sequence (P33535 whole entry): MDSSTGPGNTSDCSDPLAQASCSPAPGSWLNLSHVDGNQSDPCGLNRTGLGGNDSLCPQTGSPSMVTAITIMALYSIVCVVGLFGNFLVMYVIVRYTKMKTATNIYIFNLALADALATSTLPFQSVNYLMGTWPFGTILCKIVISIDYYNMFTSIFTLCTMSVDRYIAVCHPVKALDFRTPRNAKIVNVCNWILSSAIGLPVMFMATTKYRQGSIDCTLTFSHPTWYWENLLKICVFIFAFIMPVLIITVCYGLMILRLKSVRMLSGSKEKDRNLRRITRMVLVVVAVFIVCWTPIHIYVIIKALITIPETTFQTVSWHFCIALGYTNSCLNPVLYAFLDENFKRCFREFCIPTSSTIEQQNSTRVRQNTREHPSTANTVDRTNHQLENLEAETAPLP

[3] = system: CFA-induced paw radiant heat hypersensitivity; assay: CFA-induced paw radiant heat hypersensitivity; assay type: in vivo, rat; settings: for inhibition in vivo at 100 mg/kg / ED50 / inhibition in vivo at 30 mg/kg: po; for maximum % reversal: time not printed (last time point 100 min)
[4] = target: T2, delta opioid receptor (Mus musculus, UniProt P32300); assay: [35S]GTPγS binding assay in NG108-15 cell membranes (delta opioid functional assay), 200 nM screen; assay type: biochemical; settings: for EC50: GTPγS δ-opioid receptor EC50 (μM); for EC50 / GTPγS δ-opioid receptor Rel Efficacy / GTPγS δ-RelEfficacy @200 nM: NG108-15 cell membranes; for EC50 / GTPγS δ-RelEfficacy @200 nM: averages if tested more than once; for GTPγS δ-opioid receptor Rel Efficacy: relative efficacy from dose response; for GTPγS δ-RelEfficacy @200 nM: 200 nM test compound, relative to calculated max of SNC80 dose response curve
T2 construct: NG108-15 cell membranes were purchased from Applied Cell Sciences (Rockville, Md.); host or cells: NG108-15 cell membranes
T2 sequence (P32300 whole entry): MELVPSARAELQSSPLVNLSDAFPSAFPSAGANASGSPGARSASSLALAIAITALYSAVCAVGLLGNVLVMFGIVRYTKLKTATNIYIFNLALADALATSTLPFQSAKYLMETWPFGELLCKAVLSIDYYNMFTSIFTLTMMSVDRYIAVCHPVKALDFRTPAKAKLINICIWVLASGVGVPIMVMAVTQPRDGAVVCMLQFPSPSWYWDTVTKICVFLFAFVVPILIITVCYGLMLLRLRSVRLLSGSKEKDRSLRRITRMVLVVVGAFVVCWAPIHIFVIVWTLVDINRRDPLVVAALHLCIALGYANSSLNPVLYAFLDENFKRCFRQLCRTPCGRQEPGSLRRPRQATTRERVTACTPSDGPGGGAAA

[5] = target: T3, delta opioid receptor (Rattus norvegicus, UniProt P33533); assay: Rat brain delta opioid receptor binding assay; settings: rat forebrain, [3H]naltrindole ligand
T3 construct: the forebrains were homogenized in Tris buffer in a Teflon®-glass homogenizer; from tissue; host or cells: forebrain of male Wistar rats, particulate (membrane) preparation
T3 sequence (P33533 whole entry): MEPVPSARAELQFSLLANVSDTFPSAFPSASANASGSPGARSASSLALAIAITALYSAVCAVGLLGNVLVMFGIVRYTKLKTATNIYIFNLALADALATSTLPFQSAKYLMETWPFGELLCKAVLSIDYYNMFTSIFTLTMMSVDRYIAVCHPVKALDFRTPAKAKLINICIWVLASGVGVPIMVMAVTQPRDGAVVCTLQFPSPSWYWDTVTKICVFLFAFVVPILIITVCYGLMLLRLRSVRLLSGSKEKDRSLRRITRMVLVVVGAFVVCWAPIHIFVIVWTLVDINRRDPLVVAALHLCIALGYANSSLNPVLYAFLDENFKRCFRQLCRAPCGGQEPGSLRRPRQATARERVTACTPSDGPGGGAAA

[6] = target: hMOR (mu opioid receptor) (Homo sapiens, UniProt P35372); assay: [35S]GTPγS binding assays in CHO-hMOR cell membranes (mu opioid functional assay); assay type: biochemical; settings: for inhibition at 10 µM: read-out: GTPγS μ-opioid receptor % Inh @10 μM
Sequence of hMOR (mu opioid receptor) (P35372 whole entry, looked up): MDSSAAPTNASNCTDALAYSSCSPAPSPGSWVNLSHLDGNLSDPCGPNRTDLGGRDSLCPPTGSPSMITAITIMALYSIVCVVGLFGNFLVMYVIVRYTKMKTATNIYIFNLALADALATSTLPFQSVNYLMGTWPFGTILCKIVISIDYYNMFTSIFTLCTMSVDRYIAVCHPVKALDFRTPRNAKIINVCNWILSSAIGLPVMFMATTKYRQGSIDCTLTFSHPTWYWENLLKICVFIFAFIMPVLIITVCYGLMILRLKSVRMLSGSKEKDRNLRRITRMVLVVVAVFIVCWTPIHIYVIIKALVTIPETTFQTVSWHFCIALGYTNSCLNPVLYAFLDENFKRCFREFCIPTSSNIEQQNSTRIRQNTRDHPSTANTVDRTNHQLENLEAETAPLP

[7] = target: T2, delta opioid receptor; assay: NG108-15, 24-well delta opioid receptor binding assay
[8] = Rattus norvegicus, 1 h, read-out: maximum % reversal @ time (min), rat, 100 mg/kg p.o., 0.5% HPMC, @ 60 min
[9] = Rattus norvegicus, 3 h, read-out: maximum % reversal @ time (min), rat, 100 mg/kg p.o., 0.5% HPMC, @ 180 min, Algos (contract lab) study
[10] = δ-binding (Naltrindole ligand) Ki
[11] = Rattus norvegicus, 1 h, read-out: maximum % reversal @ time (min), rat, 30 mg/kg p.o., 0.5% HPMC, @ 60 min
[12] = Rattus norvegicus, 0.5 h, read-out: maximum % reversal @ time (min), rat, 30 mg/kg p.o., 0.5% HPMC, @ 30 min

Row | SMILES | # abdominal stretches (compound) ([1]; 30 mg/kg s.c.) | EC50 [4] | GTPγS δ-opioid receptor Rel Efficacy [4] | pKi [5, 10] | pKi ([2]; read-out: μ-binding Ki) | further results
1 | COc1ccc(Oc2nc(-c3cccnc3)ncc2NC[C@@H]2CCCN2)cc1 [Cpd 8] | 18.9 | 0.0681 µM | 0.848 | 8.21 | – | pKi ([2]; μ-binding Ki): 7.37; inhibition in vivo at 100 mg/kg [3, 8]: 46.5%; inhibition in vivo at 100 mg/kg [3, 9]: 75.1%; maximum % reversal ([3]; rat, 30 mg/kg p.o., 0.5% HPMC): 49.0%; maximum % reversal ([3]; rat, 100 mg/kg p.o., 0.5% HPMC): 64.8%; inhibition at 10 µM ([4]; read-out: GTPγS δ-opioid receptor % Inh @10 μM): 23.6%; inhibition at 10 µM [6]: 2.48%
2 | COc1ccc(Oc2nc(-c3cnc4ccccc4c3)ncc2NC[C@@H]2CCCN2)cc1 [Cpd 20] | 19.8 | – | – | 8.31 | 6.84 | –
3 | COc1ccc(Oc2nc(-c3ccc(OC)nc3)ncc2NC[C@@H]2CCCN2)cc1 [Cpd 22] | 18.6 and 16.0 | – | – | 9.04 | 5.96 | # abdominal stretches (compound) ([1]; 100 mg/kg s.c.): 17.4; # abdominal stretches (compound) ([1]; 300 mg/kg s.c.): 20.3
4 | COc1ccc(Oc2nc(-c3cncnc3)ncc2NC[C@@H]2CCCN2)cc1 [Cpd 23] | 16.7 | – | – | – | 6.67 | ED50 ([3]; 2 h, rat, p.o., 0.5% HPMC, doses 10, 30, 100, 300 mg/kg, time point 120 min, read-out: ED50): 35.4 mg/kg; pKi ([5]; read-out: δ-binding (Naltrindole ligand) Ki): 8.90
5 | COc1ccc(Oc2nc(-c3cccnc3F)ncc2NC[C@@H]2CCCN2)cc1 [Cpd 24] | 16.9 | – | – | 9.00 | 5.97 | –
6 | COc1ccc(Oc2nc(-c3ccc(F)nc3)ncc2NC[C@@H]2CCCN2)cc1 [Cpd 25] | 12.3 | – | – | 9.51 | 6.21 | –
7 | COc1ccc(Oc2nc(-c3cccnc3OC)ncc2NC[C@@H]2CCCN2)cc1 [Cpd 26] | 16.7 | – | – | 8.10 | 5.39 | –
8 | COc1ccc(Oc2nc(-c3cncc(F)c3)ncc2NC[C@@H]2CCCN2)cc1 [Cpd 54] | – | – | – | 9.48 | 6.66 | pKi [7]: 9.73; inhibition in vivo at 100 mg/kg [3, 8]: 17.8%; inhibition in vivo at 100 mg/kg ([3]; Rattus norvegicus, 3 h, read-out: maximum % reversal @ time (min), rat, 100 mg/kg p.o., 0.5% HPMC, @ 180 min): 32.7%
9 | COc1ccc(Oc2nc(-c3cncc(C#N)c3)ncc2NC[C@@H]2CCCN2)cc1 [Cpd 69] | – | 0.0085 µM | 1.004 | 8.39 | – | pKi ([2]; μ-binding Ki): 6.71; pKi [7]: 9.86; inhibition in vivo at 100 mg/kg [3, 8]: 10.1%; inhibition in vivo at 100 mg/kg ([3]; Rattus norvegicus, 1 h, read-out: maximum % reversal @ time (min), rat, 100 mg/kg p.o., 0.5% HPMC, @ 60 min, Algos (contract lab) study): 55.7%; inhibition in vivo at 100 mg/kg [3, 9]: 65.4%; pEC50 [6]: < 5.00; inhibition at 10 µM [6]: 22.8%
10 | COc1ccc(Oc2nc(-c3cncc(SC)c3)ncc2NC[C@@H]2CCCN2)cc1 [Cpd 107, [4-(4-Methoxy-phenoxy)-2-(5-methylsulfanyl-pyridin-3-yl)-pyrimidin-5-yl]-pyrrolidin-2-(S)-ylmethyl-amine] | – | 0.0213 µM | 0.957 | 9.00 | – | pKi ([2]; μ-binding Ki): 7.41; ED50 ([3]; Rattus norvegicus, 2 h): 32 mg/kg; inhibition in vivo at 100 mg/kg ([3]; Rattus norvegicus, 2 h, read-out: maximum % reversal @ time (min), rat, 100 mg/kg p.o., 0.5% HPMC, @ 120 min): 52.8%; GTPγS δ-RelEfficacy @200 nM [4]: 1.046; pEC50 [6]: 5.29; inhibition at 10 µM [6]: 4.05%
11 | COc1ccc(Oc2nc(-c3cncc(C)c3)ncc2NC[C@@H]2C[C@@H](F)CN2)cc1 [Cpd 238] | – | 0.008 µM | 0.966 | – | – | inhibition in vivo at 30 mg/kg [3, 11]: 39.5%
12 | COc1ccc(Oc2nc(-c3cncc(C)c3)ncc2NC[C@@H]2CCCN2)cc1 [Cpd 253] | – | 0.0168 µM | 0.997 | – | – | inhibition in vivo at 30 mg/kg [3, 11]: 75.9%
13 | COc1ccc(Oc2nc(-c3cccnc3)ncc2N2CCNCC2)cc1 [Cpd 327, 4-(4-Methoxy-phenoxy)-5-piperazin-1-yl-2-pyridin-3-yl-pyrimidine] | – | 0.0527 µM | 1.037 | – | – | ED50 ([3]; Rattus norvegicus, 1 h): 14.3 mg/kg; inhibition in vivo at 30 mg/kg [3, 11]: 102%; GTPγS δ-RelEfficacy @200 nM [4]: 0.471; inhibition at 10 µM [6]: 4.26%
14 | COc1ccc(Oc2nc(-c3cccnc3)ncc2N2CCCNCC2)cc1 [Cpd 336] | – | 0.0502 µM | 1.009 | – | – | inhibition in vivo at 30 mg/kg [3, 12]: 23.4%; GTPγS δ-RelEfficacy @200 nM [4]: 0.830; inhibition at 10 µM [6]: 17.1%
15 | COc1ccc(Oc2nc(-c3cncc(OC)c3)ncc2N2CCCNCC2)cc1 [Cpd 346] | – | 0.047 µM | 1.031 | – | – | inhibition in vivo at 30 mg/kg [3, 12]: 37%
16 | COc1ccc(Oc2nc(-c3cncc(C)c3)ncc2N2CCNCC2)cc1 [Cpd 351] | – | 0.0249 µM and 0.034 µM | 1.036 and 1.056 | – | – | inhibition in vivo at 30 mg/kg [3, 12]: 9.8%
17 | COc1ccc(Oc2nc(-c3cccnc3)ncc2N2CCNC[C@@H]2C)cc1 [Cpd 354] | – | 0.026 µM | 1.050 | – | – | inhibition in vivo at 30 mg/kg [3, 11]: 24.7%
